We go through 18 molecules from patent publication US20110021487A1, “CYCLOALKOXY-SUBSTITUTED 4-PHENYL-3,5-DICYANOPYRIDINES AND THEIR USE” (BAYER SCHERING PHARMA AKTIENGESELLSCHAFT, priority 2008, published 2011).

Holding throughout (type): cell-based
One experiment has as its target T1, adenosine A2b receptor (Homo sapiens, UniProt P29275).
T1 construct: expressed in transfected cells; host or cells: CHO (Chinese Hamster Ovary)
T1 sequence (P29275 1-332): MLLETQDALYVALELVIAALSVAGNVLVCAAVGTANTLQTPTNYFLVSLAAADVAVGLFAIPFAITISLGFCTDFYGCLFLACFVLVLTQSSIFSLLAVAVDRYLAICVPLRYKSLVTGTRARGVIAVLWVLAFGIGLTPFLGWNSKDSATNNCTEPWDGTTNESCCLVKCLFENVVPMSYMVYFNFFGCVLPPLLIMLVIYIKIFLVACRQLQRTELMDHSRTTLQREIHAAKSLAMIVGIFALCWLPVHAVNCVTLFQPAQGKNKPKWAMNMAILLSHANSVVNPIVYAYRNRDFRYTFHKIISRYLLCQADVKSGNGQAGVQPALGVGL
Briefly: Indirect determination of adenosine agonism by gene expression (luciferase reporter), A2b cells. The following applies: CHO cells stably transfected with A2b receptor cDNA; 50% of maximum stimulation. An excerpt:
(§1) Cells of the CHO (Chinese Hamster Ovary) permanent cell line are transfected stably with the cDNA for the adenosine receptor subtypes A1, A2a and A2b. The adenosine A1 receptors are coupled to the adenylate cyclase by way of Gi proteins, while the adenosine A2a and A2b receptors are coupled by way of Gs proteins. In correspondence with this, the formation of cAMP in the cell is inhibited or stimulated, respectively. After that, expression of the luciferase is modulated by way of a cAMP-dependent promoter. The luciferase test is optimized, with the aim of high sensitivity and reproducibility, low variance and good suitability for implementation on a robot system, by varying several test parameters, such as cell density, duration of the growth phase and the test incubation, forskolin concentration and medium composition. The following test protocol is used for pharmacologically characterizing cells and for the robot-assisted substance screening:
(§2) The stock cultures are grown, at 37° C. and under 5% CO2, in DMEM/F12 medium containing 10% FCS (fetal calf serum) and in each case split 1:10 after 2-3 days. The test cultures are seeded in 384-well plates with 2000 cells per well and grown at 37° C. for approx. 48 hours. The medium is then replaced with a physiological sodium chloride solution (130 mM sodium chloride, 5 mM potassium chloride, 2 mM calcium chloride, 20 mM HEPES, 1 mM magnesium chloride hexahydrate, 5 mM sodium bicarbonate, pH 7.4). The substances to be tested, which are dissolved in DMSO, are pipetted into the test cultures (maximum final concentration of DMSO in the test mixture: 0.5%) in a dilution series of from 5×10^−11M to 3×10^−6M (final concentration). 10 minutes later, forskolin is added to the A1 cells and all the cultures are subsequently incubated at 37° C. for four hours. After that, 35 μl of a solution which is composed of 50% lysis reagent (30 mM disodium hydrogenphosphate, 10% glycerol, 3% TritonX100, 25 mM TrisHCl, 2 mM dithiotreitol (DTT), pH 7.8) and 50% luciferase substrate solution (2.5 mM ATP, 0.5 mM luciferin, 0.1 mM coenzyme A, 10 mM tricine, 1.35 mM magnesium sulfate, 15 mM DTT, pH 7.8) are added to the test cultures, which are shaken for approx. 1 minute and the luciferase activity is measured using a camera system. The EC50 values are determined, i.e., the concentrations at which 50% of the luciferase answer is inhibited in the case of the A1 cell, and, respectively, 50% of the maximum stimulation with the corresponding substance is achieved in the case of the A2b and A2a cells. […] Pharmacol., 357 (1998), 1-9].
A general note: Reporter assays use an easily measured gene product as a stand-in for the process of interest.

A further experiment has as its target T2, adenosine A1 receptor (Homo sapiens, UniProt P30542).
T2 construct: expressed in transfected cells; host or cells: CHO (Chinese Hamster Ovary)
T2 sequence (P30542 1-326): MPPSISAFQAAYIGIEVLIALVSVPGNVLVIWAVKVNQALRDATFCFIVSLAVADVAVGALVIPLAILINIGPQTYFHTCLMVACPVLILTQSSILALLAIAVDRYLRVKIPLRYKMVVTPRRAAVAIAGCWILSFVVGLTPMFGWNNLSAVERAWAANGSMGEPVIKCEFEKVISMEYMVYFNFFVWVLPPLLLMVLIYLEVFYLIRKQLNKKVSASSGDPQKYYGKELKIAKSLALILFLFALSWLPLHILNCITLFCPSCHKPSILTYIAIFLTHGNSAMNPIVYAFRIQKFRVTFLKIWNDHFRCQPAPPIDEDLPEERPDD
Briefly: Indirect determination of adenosine agonism by gene expression (luciferase reporter), A1 cells. Conditions: CHO cells stably transfected with A1 receptor cDNA; 1 μM forskolin; 50% inhibition of luciferase answer.
Description: as §1, §2

The target in the next experiment is T3, adenosine A2a receptor (Homo sapiens, UniProt P29274).
T3 construct: expressed in transfected cells; host or cells: CHO (Chinese Hamster Ovary)
Briefly: Indirect determination of adenosine agonism by gene expression (luciferase reporter), A2a cells. The following applies: CHO cells stably transfected with A2a receptor cDNA; 50% of maximum stimulation.
Description: as §1, §2

Each structure is given as a SMILES string.

T3 sequence (P29274 whole entry): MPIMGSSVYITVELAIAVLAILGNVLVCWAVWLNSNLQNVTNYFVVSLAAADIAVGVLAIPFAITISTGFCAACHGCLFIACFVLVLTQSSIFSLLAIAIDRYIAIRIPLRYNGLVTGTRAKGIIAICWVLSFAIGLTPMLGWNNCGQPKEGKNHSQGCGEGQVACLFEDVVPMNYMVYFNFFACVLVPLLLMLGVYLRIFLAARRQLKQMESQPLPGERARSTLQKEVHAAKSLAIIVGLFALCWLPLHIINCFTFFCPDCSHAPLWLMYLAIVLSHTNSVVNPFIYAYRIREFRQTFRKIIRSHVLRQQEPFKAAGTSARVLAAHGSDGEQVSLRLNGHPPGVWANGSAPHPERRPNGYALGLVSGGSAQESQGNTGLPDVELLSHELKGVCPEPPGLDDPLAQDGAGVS

With `N#Cc1c(N)nc(SCc2c[nH]cn2)c(C#N)c1-c1ccc(O[C@H]2CCCC[C@@H]2O)cc1` [Example 10], the concentration giving a half-maximal response (EC50) (usually the midpoint of the concentration-response curve) on adenosine A2b receptor stood at 4.3 nM; on adenosine A1 receptor, 265 nM.

With `CNC(=O)c1cc(CSc2nc(N)c(C#N)c(-c3ccc(OC4CCOC4)cc3)c2C#N)ccn1` (stereo not shown) [Example 44], the EC50 on adenosine A2a receptor turned out to be 69 nM; on adenosine A2b receptor it was 234 nM; at adenosine A1 receptor it was 0.08 nM.

On to `N#Cc1c(N)nc(SCc2cccnc2)c(C#N)c1-c1ccc(O[C@H]2CCC[C@H]2O)cc1` (racemic) [Example 41, rac-cis-2-Amino-4-(4-{[2-hydroxycyclopentyl]oxy}phenyl)-6-[(pyridin-3-ylmethyl)sulfanyl]pyridine-3,5-dicarbonitrile], for which the EC50 was 480 nM at adenosine A2a receptor, 11 nM at adenosine A2b receptor and 2.9 nM at adenosine A1 receptor.

As for `CC(Sc1nc(N)c(C#N)c(-c2ccc(OC3CCOC3)cc2)c1C#N)c1cccc(C(N)=O)c1` (single isomer, unassigned; ent-3) [Example 66, ent-3-[1-({6-Amino-3,5-dicyano-4-[4-(tetrahydrofuran-3-yloxy)phenyl]pyridin-2-yl}-sulfanyl)ethyl]benzamide], the values for the EC50 on adenosine A2b receptor and on adenosine A1 receptor were 1780 nM and 0.53 nM, respectively.

For `N#Cc1c(N)nc(SCc2csc(Nc3ccc(F)cc3)n2)c(C#N)c1-c1ccc(O[C@H]2COC[C@@H]2O)cc1` (single isomer, unassigned) [Example 35, ent-trans-2-Amino-6-[({2-[(4-fluorophenyl)amino]-1,3-thiazol-4-yl}methyl)thio]-4-(4-{[4-hydroxytetrahydrofuran-3-yl]oxy}phenyl)pyridine-3,5-dicarbonitrile], the values for the EC50 on adenosine A2a receptor, on adenosine A2b receptor and at adenosine A1 receptor were 874 nM, 43 nM and 0.56 nM, respectively.

In the case of `N#Cc1c(SCc2csc(-c3ccc(Cl)cc3)n2)nc(N2CC(O)C2)c(C#N)c1-c1ccc(O[C@H]2COC[C@@H]2O)cc1` (single isomer, unassigned) [Example 29, ent-trans-2-({[2-(4-Chlorophenyl)-1,3-thiazol-4-yl]methyl}sulfanyl)-6-(3-hydroxyazetidin-1-yl)-4-(4-{[4-hydroxytetrahydrofuran-3-yl]oxy}phenyl)pyridine-3,5-dicarbonitrile], the figures for the EC50 at adenosine A2a receptor and on adenosine A1 receptor were 1270 nM and 0.18 nM, respectively.

For `N#Cc1c(N)nc(SCc2ccccn2)c(C#N)c1-c1ccc(O[C@H]2COC[C@@H]2O)cc1` (single isomer, unassigned) [Example 32, ent-trans-2-Amino-4-(4-{[4-hydroxytetrahydrofuran-3-yl]oxy}phenyl)-6-[(pyridin-2-ylmethyl)thio]pyridine-3,5-dicarbonitrile], the EC50 at adenosine A2a receptor stood at 144 nM; at adenosine A2b receptor, 720 nM; at adenosine A1 receptor it was 0.86 nM.

In the case of `N#Cc1c(N)nc(SCc2csc(N)n2)c(C#N)c1-c1ccc(O[C@H]2CCCC[C@@H]2O)cc1` [Example 9], the EC50 on adenosine A2b receptor was 3.9 nM; on adenosine A1 receptor, 104 nM.

Turning to `N#Cc1c(N)nc(SCc2cccnc2)c(C#N)c1-c1ccc(O[C@H]2CCCC[C@@H]2O)cc1` [Example 8], the EC50 on adenosine A2a receptor was 497 nM; on adenosine A2b receptor, 2.4 nM; at adenosine A1 receptor, 6.9 nM.

`CNC(=O)c1nc(CSc2nc(N)c(C#N)c(-c3ccc(OC4CCOC4)cc3)c2C#N)cs1` (racemic) [Example 51, rac-4-[({6-Amino-3,5-dicyano-4-[4-(tetrahydrofuran-3-yloxy)phenyl]pyridin-2-yl}sulfanyl)methyl]-N-methyl-1,3-thiazole-2-carboxamide]: the EC50 is 261 nM at adenosine A2a receptor, 177 nM at adenosine A2b receptor and 0.51 nM on adenosine A1 receptor.

Consider `Cc1oc(-c2ccc(C(=O)O)cc2)nc1CSc1nc(N)c(C#N)c(-c2ccc(OC3CCOC3)cc2)c1C#N` (racemic) [Example 49, rac-4-{4-[({6-Amino-3,5-dicyano-4-[4-(tetrahydrofuran-3-yloxy)phenyl]pyridin-2-yl}thio)methyl]-5-methyl-1,3-oxazol-2-yl}benzoic acid], for which the EC50 on adenosine A2a receptor is 782 nM; at adenosine A1 receptor it was 0.22 nM.

In the case of `N#Cc1c(N)nc(SCc2csc(-c3ccc(Cl)cc3)n2)c(C#N)c1-c1ccc(O[C@H]2COC[C@@H]2O)cc1` (racemic) [Example 24, rac-trans-2-Amino-6-({[2-(4-chlorophenyl)-1,3-thiazol-4-yl]methyl}thio)-4-(4-{[4-hydroxytetrahydrofuran-3-yl]oxy}phenyl)pyridine-3,5-dicarbonitrile], the concentration for a half-maximal effect (EC50) at adenosine A2a receptor was determined as 506 nM; at adenosine A1 receptor, 0.14 nM.

Consider `N#Cc1c(N)nc(SCc2cscn2)c(C#N)c1-c1ccc(O[C@H]2CCCC[C@@H]2O)cc1` [Example 14], for which the 50% effective concentration (EC50) came out at 1920 nM on adenosine A2a receptor, 16 nM on adenosine A2b receptor and 56 nM at adenosine A1 receptor.

Regarding `N#Cc1ccccc1CSc1nc(N)c(C#N)c(-c2ccc(O[C@H]3CCCC[C@@H]3O)cc2)c1C#N` (single isomer, unassigned) [Example 23, ent-trans-2-Amino-6-[(2-cyanobenzyl)sulfanyl]-4-(4-{[2-hydroxycyclohexyl]oxy}-phenyl)pyridine-3,5-dicarbonitrile], the EC50 at adenosine A2a receptor is 518 nM; at adenosine A2b receptor, 6.9 nM; on adenosine A1 receptor, 168 nM.

For `N#Cc1c(N)nc(SCc2cccc(C(N)=O)c2)c(C#N)c1-c1ccc(OC2CCOC2)cc1` (stereo not shown) [Example 43], the EC50 on adenosine A2a receptor turned out to be 424 nM; on adenosine A2b receptor it was 537 nM; at adenosine A1 receptor, 0.16 nM.

`N#Cc1c(N)nc(SCc2csc(C(N)=O)n2)c(C#N)c1-c1ccc(OC2CCOC2)cc1` (racemic) [Example 50, rac-4-[({6-Amino-3,5-dicyano-4-[4-(tetrahydrofuran-3-yloxy)phenyl]pyridin-2-yl}sulfanyl)methyl]-1,3-thiazole-2-carboxamide]: the EC50 was 1100 nM at adenosine A2a receptor, 556 nM on adenosine A2b receptor and 0.78 nM at adenosine A1 receptor.

Take `COC(=O)c1cccc(C(C)Sc2nc(N)c(C#N)c(-c3ccc(OC4CCOC4)cc3)c2C#N)c1` (single isomer, unassigned; ent-3) [Example 64, Methyl ent-3-[1-({6-amino-3,5-dicyano-4-[4-(tetrahydrofuran-3-yloxy)phenyl]pyridin-2-yl}sulfanyl)ethyl]benzoate]: at adenosine A1 receptor, the response was half-maximal at 4.1 nM (EC50).

For the molecule `N#Cc1c(N)nc(SCc2cccc(C(N)=O)c2)c(C#N)c1-c1ccc(OC2CCOC2)c(F)c1` (stereo not shown) [Example 58], the results for the EC50 on adenosine A2a receptor, at adenosine A2b receptor and on adenosine A1 receptor were 909 nM, 1010 nM and 0.63 nM, respectively.
